Values quoted from earlier work in patent US20190167750A1, “NUTRITIONAL SUPPLEMENTS FOR INCREASING MALE TESTOSTERONE LEVELS” (Innovus Pharmaceuticals, Inc., priority 2017, published 2019).

Assays:
human CYP3A4 = human CYP3A4 (Homo sapiens, UniProt P08684)
P-glycoprotein = P-glycoprotein (Homo sapiens, UniProt P08183)
Chain of P-glycoprotein (P08183 whole entry): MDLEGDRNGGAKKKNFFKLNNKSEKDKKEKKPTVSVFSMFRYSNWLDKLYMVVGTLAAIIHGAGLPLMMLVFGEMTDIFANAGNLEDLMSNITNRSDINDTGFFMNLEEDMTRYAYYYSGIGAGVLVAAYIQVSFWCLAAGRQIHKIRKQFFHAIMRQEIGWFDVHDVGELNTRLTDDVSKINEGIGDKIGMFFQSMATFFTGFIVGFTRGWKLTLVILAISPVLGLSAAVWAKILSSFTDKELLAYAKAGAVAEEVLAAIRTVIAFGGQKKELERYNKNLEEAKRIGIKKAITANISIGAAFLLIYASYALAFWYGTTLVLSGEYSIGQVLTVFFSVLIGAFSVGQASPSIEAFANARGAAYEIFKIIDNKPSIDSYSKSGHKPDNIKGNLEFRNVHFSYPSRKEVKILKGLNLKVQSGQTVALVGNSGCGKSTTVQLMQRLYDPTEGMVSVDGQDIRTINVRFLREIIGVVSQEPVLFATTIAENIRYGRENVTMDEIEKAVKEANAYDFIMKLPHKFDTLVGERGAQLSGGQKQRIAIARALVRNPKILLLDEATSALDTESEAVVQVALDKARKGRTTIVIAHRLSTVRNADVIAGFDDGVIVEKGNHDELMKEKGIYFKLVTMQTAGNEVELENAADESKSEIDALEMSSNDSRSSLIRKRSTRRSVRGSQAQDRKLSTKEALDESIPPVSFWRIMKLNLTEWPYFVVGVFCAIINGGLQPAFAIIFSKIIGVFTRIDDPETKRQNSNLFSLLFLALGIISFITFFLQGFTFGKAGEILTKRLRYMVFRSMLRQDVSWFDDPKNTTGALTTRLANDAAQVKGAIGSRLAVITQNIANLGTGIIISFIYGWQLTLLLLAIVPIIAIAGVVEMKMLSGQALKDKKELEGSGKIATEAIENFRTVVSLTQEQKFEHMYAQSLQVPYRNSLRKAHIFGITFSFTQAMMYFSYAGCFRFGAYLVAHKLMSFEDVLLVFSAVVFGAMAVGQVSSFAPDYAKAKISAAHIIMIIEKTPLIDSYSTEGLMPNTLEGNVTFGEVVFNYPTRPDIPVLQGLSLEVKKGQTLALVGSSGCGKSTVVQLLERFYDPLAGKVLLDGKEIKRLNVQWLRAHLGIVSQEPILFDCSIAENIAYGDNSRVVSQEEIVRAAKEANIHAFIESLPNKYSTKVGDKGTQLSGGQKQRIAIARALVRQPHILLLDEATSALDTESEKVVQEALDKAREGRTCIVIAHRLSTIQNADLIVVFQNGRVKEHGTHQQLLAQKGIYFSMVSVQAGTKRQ

Chain of human CYP3A4 (P08684 whole entry): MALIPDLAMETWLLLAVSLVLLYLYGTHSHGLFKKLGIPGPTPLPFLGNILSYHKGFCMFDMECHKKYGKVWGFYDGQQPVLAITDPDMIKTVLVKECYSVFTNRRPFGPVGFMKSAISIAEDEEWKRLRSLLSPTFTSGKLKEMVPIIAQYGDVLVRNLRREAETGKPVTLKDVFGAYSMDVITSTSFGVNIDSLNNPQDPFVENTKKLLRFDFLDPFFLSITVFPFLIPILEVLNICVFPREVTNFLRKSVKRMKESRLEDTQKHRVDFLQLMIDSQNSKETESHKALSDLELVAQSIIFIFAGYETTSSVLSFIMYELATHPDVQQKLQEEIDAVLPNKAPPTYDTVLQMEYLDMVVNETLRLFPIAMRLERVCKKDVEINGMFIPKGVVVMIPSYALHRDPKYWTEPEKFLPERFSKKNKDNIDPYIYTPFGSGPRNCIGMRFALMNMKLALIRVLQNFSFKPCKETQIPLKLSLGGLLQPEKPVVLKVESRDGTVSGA

## O=C(/C=C/C=C/c1ccc2c(c1)OCO2)N1CCCCC1 [Bioperine, (2E,4E)-5-(1,3-benzodioxol-5-yl)-1-(piperidin-1-yl)penta-2,4-dien-1-one]
Human CYP3A4
  inhibition of human CYP3A4: inhibits
P-glycoprotein
  inhibition of P-glycoprotein: inhibits
